# Test results published in patent publication US5759996A, “Peptides useful for altering αv β3 -mediated binding” (priority 1995, dated 1998).
# Where a SMILES comes first, the peptide text is derived from it. Bridges are numbered along the chain shown (N, C = ends). [ ]: non-standard residue; d: D form. Tic = O=C(O)[C@@H]1Cc2ccccc2CN1; Pen = CC(C)(S)[C@H](N)C(=O)O; Mpa = O=C(O)CCS
# How the values were obtained:
# [1] = half-life of peptide in serum; settings: in vivo
# Description: Increased stability of a disulfide bonded peptide of the invention also can be conferred by incorporating a hydrophobic amino acid residue such as phenylalanine at position X1 or X8 or both X1 and X8 in an RGDNTic (SEQ ID NO: 31) or RGDDV (SEQ ID NO: 1) pharmacophore as disclosed herein. The presence of such a residue can stabilize the disulfide bond against enzymatic degradation (see Bauer et al., Life Sciences 31:1133-1140 (1982)). […] In addition, the half-life of a peptide in a subject can be determined, for example, by high performance liquid chromatography (HPLC) of serum samples collected from the subject at various times following administration of the peptide. One skilled in the art would know how to select appropriate elution buffers for HPLC based on the physico-chemical properties of a particular peptide.
# [2] = rabbit, in vivo; cited from earlier work
# [3] = tested on: osteoclasts; settings: cited from earlier work
# [4] = cited from earlier work
# [5] = biological target: αv β3 integrin receptor (Homo sapiens, UniProt P05106+P06756); test: series of in vitro assays of Example II (potency and selectivity summary)
# [6] = parathyroid hormone-induced hypercalcemia in mice; type: in vivo; settings: parathyroidectomized mice, 4 hr infusion, various doses
# Description: Parathyroid hormone (PTH) activates osteoclasts, which are involved in bone resorption. Associated with the increased osteoclast activity is an increase in serum calcium. The PTH-induced hypercalcemia assay measures the level of serum calcium, which is an indication of bone resorption in a subject (Fischer et al., Endocrinology 132:1411-1413 (1993), which is incorporated herein by reference).
# Swiss-Webster mice, which had been parathyroidectomized two weeks prior to beginning the assay, were obtained from Taconic Lab Animals and Services (Germantown N.Y.). Femoral vein catheters (PE-50 fused with PE10 polyethylene tubing; Becton Dickinson; Parsippany, N.J.) were installed in the mice, flushed and locked with heparinized saline (1:10), sutured to adjacent muscle and internalized within the inguinal space of the incision before closing the incision with wound clips. […]
# The experiment was initiated by feeding the mice a calcium-deficient diet overnight, then injecting the mice the following morning with a bolus of 0.2 mg PTH/kg (hPTH 1-34; Bachem; Torrance Calif.), intravenously. […] Various doses of a peptide or vehicle were infused into an animal for 4 hr, then ionized serum calcium again was measured. […] Serum calcium measurements were expressed as the difference between the value 30 min before the PTH pulse and 4 hr after peptide infusion was started. […]
# [7] = biological target: T1, purified human α5 β1 (FnR) (Homo sapiens, UniProt P05556+P08648); test: α5 β1 ELISA (competitive); type: binding
# T1 construct: Fibronectin receptor (FnR) was purified from 100 mM octyl-glucopyranoside-extracted human placenta; from tissue; host or cells: human placenta
# Method: Peptide binding to purified human α5 β1 (FnR) also was determined using a competitive ELISA. In these assays, Fn was immobilized to the wells and the binding of solubilized FnR in the presence of various concentrations of a peptide analogue was determined using a mouse monoclonal antibody to human β1 (clone P4C10; Gibco) and specific binding was visualized using a second antibody.
# Microtiter wells were coated at RT by adding 100 μl of 2 μg/ml human Fn in TBS and incubating the plates overnight at 4° C. Following incubation, the plates were washed 3× with TBS/"TWEEN 20" (polyoxyethylenesorbitan monolaurate). RGD peptides were diluted in TBS containing 20 mM OG and 2 mM MnCl2 and 50 μl was added to wells at 10-fold serial dilutions. FnR was diluted in the same buffer and 50 μl was added to each well.
# The plates were incubated for 3 hr at RT and washed with 300 μl TBS/"TWEEN 20" (polyoxyethylenesorbitan monolaurate). Bound receptor was incubated with 100 μl of the monoclonal anti-β1 antibody for 2 hr, then washed 3× with TBS/"TWEEN 20" (polyoxyethylenesorbitan monolaurate). […] The amount of bound second antibody was determined as described above.
# The IC50 values for various RGD peptides were calculated by determining the concentration of a peptide that inhibited binding of Vn to αv β5 or αv β3 or of Fn to α5 β1, by 50%. […]
molecule,measurement,setting,value
CC(=O)N[C@@H](Cc1ccccc1)C(=O)N[C@H]1CSSC[C@@H](C(N)=O)NC(=O)[C@H](Cc2ccccc2)NC(=O)[C@H]([C@@H](C)O)NC(=O)[C@H](CC(=O)O)NC(=O)CNC(=O)[C@H](CCCNC(=N)N)NC1=O [peptide 220] (Ac-FCRGDTFC-NH2; disulfide 2-8),half-life in serum,[1],relatively long half-life in serum
G(Pen)GRGDSPCA,neointimal hyperplasia,[2],inhibit neointimal hyperplasia
Echistatin,binding to osteoclasts,[3],binds to osteoclasts in a nonselective manner
same,bone resorption in vitro,[3]; in vitro,inhibits bone resorption in vitro
same,bone resorption in vivo,[4],inhibits bone resorption
CC(=O)N[C@@H]1C(=O)N[C@@H](Cc2ccccc2)C(=O)N[C@@H](C)C(=O)N[C@@H](CCCNC(=N)N)C(=O)NCC(=O)N[C@@H](CC(=O)O)C(=O)N[C@@H](CC(N)=O)C(=O)N2CCC[C@H]2C(=O)N[C@H](C(N)=O)CSSC1(C)C [peptide 214] (Ac-[Pen]FARGDNPC-NH2; disulfide 1-9),potency (active at relatively low concentration),[5]; summary of assays,particularly potent
"CC(=O)N[C@H]1CSSC[C@@H](C(N)=O)NC(=O)[C@@H]2Cc3ccccc3CN2C(=O)[C@H](CO)NC(=O)[C@H](CC(=O)O)NC(=O)CNC(=O)[C@H](CCCNC(=N)N)NC1=O [compound 812, Ac-CRGDS(Tic)C-NH2] (Ac-CRGDS[Tic]C-NH2; disulfide 1-7)",activity (FIG. 2 assays),[5]; minimal-element peptides,demonstrate activity
same,potency (active at relatively low concentration),[5]; summary of assays,particularly potent
CC(=O)N[C@H]1CSSC(C)(C)[C@@H](C(N)=O)NC(=O)[C@@H]2CCCN2C(=O)[C@H](CC(N)=O)NC(=O)[C@H](CC(=O)O)NC(=O)CNC(=O)[C@H](CCCNC(=N)N)NC1=O [compound 228] (Ac-CRGDNP[Pen]-NH2; disulfide 1-7),receptor selectivity (summary),[5]; summary of assays,particularly receptor selective
CC(C)[C@@H]1NC(=O)[C@H](CC(=O)O)NC(=O)[C@H](CC(=O)O)NC(=O)CNC(=O)[C@H](CCCNC(=N)N)NC(=O)CCSSC[C@@H](C(N)=O)NC1=O [compound 191] ([Mpa]RGDDVC-NH2; disulfide 1-7),PTH-induced rise in serum ionized calcium,[6],decreased the PTH-induced rise in serum ionized calcium in a dose responsive manner
C[C@@H]1NC(=O)[C@H](CCCNC(=N)N)NC(=O)CNC(=O)CC[C@@H](C(N)=O)NC(=O)[C@@H]2CCCN2C(=O)[C@H](CC(N)=O)NC(=O)[C@H](CC(=O)O)NC(=O)CNC(=O)[C@H](CCCNC(=N)N)NC1=O [compound 390] (GRARGDNPE-NH2; lactam N-9),receptor selectivity α5 β1 versus αv β5,[7],more selective toward α5 β1 than toward αv β5
